# Source: US11774396B2, “Systems and methods for patterning and spatial electrochemical mapping of cells” (President and Fellows of Harvard College, priority 2020, dated 2023)
# How the values were obtained:
# MDCK cells [1] = system: MDCK cells
# Source text: This example describes a method using cross-electrode impedance mapping to quantify cell adhesion.
# Ethylenediaminetetraacetic acid (EDTA) is applied to the cells. EDTA is a calcium chelator that removes Ca^2+ needed for integrin proteins to maintain cell adhesion.
# FIG. 6b is a data plot showing mean normalized impedances for different regions of the cell culture over time as specified in the map 601. FIG. 6cc are histograms of the normalized impedance values before, during, and after a washout of EDTA across the array.
# MDCK cells [2] = experiment: Wound healing assay: electrochemical patterning and impedance mapping of regrowth; assay type: cell-based, Canine; conditions: 1 μM, over the course of 72 hours; control culture took ~3 days to fill in the wound
# Source text: This example describes a combined application of both the cross-electrode impedance mapping and cell patterning is a wound healing assay.
# These assays gauge cell growth rate and metabolism and can be useful for screening drugs affecting these parameters. Compared to the electrochemical patterning described herein, other tools mechanically generate a wound in a cell culture via a mechanical scratch which is both difficult to control and limiting in terms of wound pattern.
# In this example, a wound is made in MDCK cells and then the growth is mapped in real-time. […] These patterns were defined by applying electrode currents of −10 nA for 40 s versus a Ag/AgCl pseudo reference electrode. The regrowth of the culture was then measured using the impedance mapping method.
Structure (SMILES),time course over which the cells detach with EDTA applied (MDCK cells [1]; 5 mM EDTA application at t=~5 min) [min],time course over which the cells re-attach after EDTA washout (MDCK cells [1]; EDTA washed out by adding normal culture media) [min],regrowth of the wound in the cell culture (normalized cross-electrode impedance maps) (MDCK cells [2])
"O=C(O)CN(CCN(CC(=O)O)CC(=O)O)CC(=O)O [EDTA, Ethylenediaminetetraacetic acid]",~50,~200,
C=C1[C@@H](C)[C@H]2[C@H](Cc3ccccc3)NC(=O)[C@]23OC(=O)/C=C/[C@H](O)CCC[C@@H](C)C/C=C/[C@H]3[C@@H]1O [cytochalasin B],,,very little growth
